Test results taken from ChEMBL document CHEMBL1201862, “PubChem BioAssay data set” (2004).
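1) Cells in 96-well plates. 2) Compound, 48 h, 5 concentrations. 3) Linear interpolation between surrounding doses. 4) Unreached endpoint = highest concentration. GI50 = concentration required for 50% inhibition of growth.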 Active and inactive are the calls of the source. No stated cut-off is given here; in the data, active = GI50 up to about 1.1 µM and inactive = higher.

What was measured:
Experiment in all cases: inhibition of tumour cell growth, NCI panel, 48 h
A498 = tested on: A498
CAKI-1 = tested on: CAKI-1
EKVX = tested on: EKVX
HCT-116 = tested on: HCT-116
HCT-15 = tested on: HCT-15
HOP-62 = tested on: HOP-62
HT-29 = tested on: HT-29
M19-MEL = tested on: M19-MEL
NCI-H23 = tested on: NCI-H23
OVCAR-5 = tested on: OVCAR-5
OVCAR-8 = tested on: OVCAR-8
SK-MEL-28 = tested on: SK-MEL-28
SNB-78 = tested on: SNB-78
SR = tested on: SR
SW-620 = tested on: SW-620
U-251 = tested on: U-251
UACC-257 = tested on: UACC-257
NCI/ADR-RES = tested on: NCI/ADR-RES
DU-145 = tested on: DU-145
MDA-N = tested on: MDA-N

Measured: GI50

CC(C)(C)/N=C\N(C=C(c1ccccc1)c1ccccc1)C1CCCCC1
28.5 µM: HCT-15
inactive: A498 23.3 µM | CAKI-1 50.6 µM | EKVX 93.1 µM | HCT-116 23.4 µM | HOP-62 > 100 µM | HT-29 25.9 µM | M19-MEL 44.2 µM | NCI-H23 40.3 µM | OVCAR-5 35.1 µM | OVCAR-8 91.8 µM | SK-MEL-28 35 µM | SNB-78 69 µM | SR 18 µM | SW-620 36.3 µM | U-251 32.1 µM | UACC-257 33.3 µM

Cn1cnc([N+](=O)[O-])c1Sc1nc2ccccc2[nH]1
11.1 µM: HCT-15
inactive: A498 21.2 µM | CAKI-1 3.68 µM | EKVX 14.1 µM | HCT-116 14.8 µM | HOP-62 > 100 µM | HT-29 27.7 µM | M19-MEL 14.9 µM | NCI-H23 19.1 µM | OVCAR-5 52.8 µM | OVCAR-8 11.7 µM | SK-MEL-28 13.1 µM | SNB-78 13.2 µM | SR 10 µM | SW-620 > 10 µM | U-251 20 µM | UACC-257 15.1 µM

O=C(CCN1CCCCC1)C(=Cc1ccccc1)C(=O)CCN1CCCCC1
inactive: A498 > 100 µM | CAKI-1 2.45 µM | EKVX > 100 µM | HCT-116 42.3 µM | HOP-62 > 100 µM | HT-29 6.68 µM | M19-MEL 67.3 µM | NCI-H23 > 59.8 µM | NCI/ADR-RES 74.5 µM | OVCAR-5 > 100 µM | OVCAR-8 25.1 µM | SK-MEL-28 > 10 µM | SNB-78 > 62.5 µM | SR 4.36 µM | SW-620 29.7 µM | U-251 > 100 µM | UACC-257 6.75 µM
64.9 µM: HCT-15

Clc1cccc(Cl)c1C1SCc2nc3ccccc3n21 (stereo not given)
24.9 µM: HCT-15
inactive: A498 > 100 µM | CAKI-1 > 100 µM | EKVX 78.3 µM | HCT-116 9.23 µM | HOP-62 > 100 µM | HT-29 43.9 µM | M19-MEL > 100 µM | NCI-H23 > 100 µM | OVCAR-5 > 100 µM | OVCAR-8 > 100 µM | SNB-78 > 100 µM | SR 5.38 µM | SW-620 46.7 µM | U-251 > 100 µM | UACC-257 21.1 µM

C/C1=C/C2OC(=O)C3(C)C2C(CC2(C)OC1=CC2=O)OC3(O)C(C)C (stereo not given)
20.3 µM: HCT-15
inactive: A498 73.8 µM | CAKI-1 30.5 µM | DU-145 59.8 µM | EKVX 47.6 µM | HCT-116 > 61.1 µM | HOP-62 41.6 µM | HT-29 28.3 µM | M19-MEL 34.4 µM | MDA-N 53.7 µM | NCI-H23 15 µM | NCI/ADR-RES 59 µM | OVCAR-5 34.8 µM | OVCAR-8 29 µM | SK-MEL-28 40.5 µM | SNB-78 35.2 µM | SR 22.6 µM | SW-620 23.7 µM | U-251 23.9 µM | UACC-257 26.9 µM

CC1(C)O[C@@H](CCl)C[C@H](C#N)O1
> 100 µM: HCT-15
inactive: A498 > 100 µM | CAKI-1 > 100 µM | EKVX > 100 µM | HCT-116 > 100 µM | HOP-62 > 100 µM | HT-29 > 100 µM | M19-MEL > 100 µM | NCI-H23 > 100 µM | OVCAR-5 > 100 µM | OVCAR-8 > 100 µM | SK-MEL-28 > 100 µM | SNB-78 > 100 µM | SR > 100 µM | SW-620 > 100 µM | U-251 > 100 µM | UACC-257 > 100 µM
